From article PMC6264464, “Synthesis and Antifungal Activity of Novel Sulfone Derivatives Containing 1,3,4-Oxadiazole Moieties” (Molecules, 2011)
In brackets after ≈: the same amount, converted by molar mass. Read-outs that look alike come from different tables or passages of the source.

Tests used:
[1] = system: S. sclerotiorum; assay: microbe, parasite or virus in culture; type: cell-based; details: Sclerotinia sclerotiorum, read-out: EC50 (µg/mL) S. sclerotiorum
[2] = system: C. mandshurica; assay: Mycelial growth rate / poison plate antifungal test; type: cell-based, Cytospora mandshurica; details: Cytospora; for inhibition at 50 µg/mL: 120 h, read-out: Inhibition (%) C. mandshurica; for EC50: read-out: EC50 (µg/mL) C. mandshurica
[3] = system: B. cinerea; assay: microbe, parasite or virus in culture; type: cell-based; details: Botrytis cinerea, read-out: EC50 (µg/mL) B. cinerea
[4] = system: T. cucumeris; assay: microbe, parasite or virus in culture; type: cell-based; details: Thanatephorus cucumeris, read-out: EC50 (µg/mL) T. cucumeris
[5] = system: F. oxysporum; assay: Mycelial growth rate / poison plate antifungal test; type: cell-based; details: Fusarium oxysporum; for inhibition at 50 µg/mL: 120 h, read-out: Inhibition (%) F. oxysporum; for EC50: read-out: EC50 (µg/mL) F. oxysporum
[6] = system: R. solani; assay: microbe, parasite or virus in culture; type: cell-based; details: Rhizoctonia solani, read-out: EC50 (µg/mL) R. solani
[7] = system: P. infestans; assay: microbe, parasite or virus in culture; type: cell-based; details: Phytophthora infestans, read-out: EC50 (µg/mL) P. infestans
[8] = system: C. gloeosporioides; assay: microbe, parasite or virus in culture; type: cell-based; details: Colletotrichum gloeosporioides, read-out: EC50 (µg/mL) C. gloeosporioides
[9] = at 50 µg/mL, PDA, 27 ± 1 °C, 5 days

Structure (SMILES)	EC50 [1]	inhibition at 50 µg/mL [2, 9]	EC50 [2]	EC50 [3]	EC50 [4]	inhibition at 50 µg/mL [5, 9]	EC50 [5]	EC50 [6]	EC50 [7]	melting point	EC50 [8]	inhibition at 50 µg/mL [2]	inhibition at 50 µg/mL [5]
CS(=O)(=O)c1nnc(-c2ccccc2Br)o1 [Compound 5i, 2-(Methylsulfonyl)-5-(2-bromophenyl)-1,3,4-oxadiazole]	14.8 ± 1.02 µg/mL (≈ 48.8 µM)	79.6 ± 7.1%	44.5 ± 3.56 µg/mL (≈ 147 µM)	21 ± 2.01 µg/mL (≈ 69.3 µM)	24.8 ± 4.29 µg/mL (≈ 81.7 µM)	77 ± 6.6%	29.9 ± 1.31 µg/mL (≈ 98.6 µM)	20 ± 1.28 µg/mL (≈ 66 µM)	49.6 ± 9.39 µg/mL (≈ 164 µM)	134 to 135 °C	21.9 ± 2.93 µg/mL (≈ 72.4 µM)		
CS(=O)(=O)c1nnc(-c2c(Cl)cccc2Cl)o1 [Compound 5f, 2-(Methylsulfonyl)-5-(2,6-dichlorophenyl)-1,3,4-oxadiazole]	17.2 ± 4.72 µg/mL (≈ 58.7 µM)	> 90%	98.2 ± 8.35 µg/mL (≈ 335 µM)	8.03 ± 0.86 µg/mL (≈ 27.4 µM)	25.2 ± 2.34 µg/mL (≈ 86.1 µM)	94 ± 4.1%	85.4 ± 17.9 µg/mL (≈ 291 µM)	16.2 ± 9.76 µg/mL (≈ 55.1 µM)	42.9 ± 7.38 µg/mL (≈ 146 µM)	126 to 128 °C	33.1 ± 8.29 µg/mL (≈ 113 µM)		
CS(=O)(=O)c1nnc(-c2ccc(F)c(F)c2F)o1 [Compound 5b, 2-(Methylsulfonyl)-5-(2,3,4-trifluorophenyl)-1,3,4-oxadiazole]		89.7 ± 3.1%				97.5 ± 3.3%				114 to 115 °C			
CS(=O)(=O)c1nnc(-c2ccccc2C(F)(F)F)o1 [Compound 5a, 2-(Methylsulfonyl)-5-(2-(trifluoromethyl)phenyl)-1,3,4-oxadiazole]		68.3 ± 9.3%				71.1 ± 7.7%				102 to 104 °C			
CS(=O)(=O)c1nnc(-c2c(F)cccc2F)o1 [Compound 5e, 2-(Methylsulfonyl)-5-(2,6-difluorophenyl)-1,3,4-oxadiazole]	15 ± 6.83 µg/mL (≈ 57.5 µM)	> 90%	38.3 ± 3.21 µg/mL (≈ 147 µM)	8.25 ± 0.85 µg/mL (≈ 31.7 µM)	23.4 ± 4.76 µg/mL (≈ 89.7 µM)	98.8 ± 8%	65.8 ± 7.04 µg/mL (≈ 253 µM)	21.2 ± 4.12 µg/mL (≈ 81.6 µM)	59.5 ± 16.8 µg/mL (≈ 229 µM)	131 to 132 °C	26.1 ± 7.32 µg/mL (≈ 100 µM)		
COc1ccccc1-c1nnc(S(C)(=O)=O)o1 [Compound 5g, 2-(Methylsulfonyl)-5-(2-methoxyphenyl)-1,3,4-oxadiazole]		> 90%				89.6 ± 4.5%				127 to 129 °C			
CS(=O)(=O)c1nnc(-c2ccccc2F)o1 [Compound 5d, 2-(Methylsulfonyl)-5-(2-fluorophenyl)-1,3,4-oxadiazole]	8.49 ± 3.51 µg/mL (≈ 35 µM)	64 ± 1.3%	79.9 ± 14.8 µg/mL (≈ 330 µM)	5.21 ± 2.05 µg/mL (≈ 21.5 µM)	10 ± 5.64 µg/mL (≈ 41.3 µM)	70.1 ± 4.9%	29.1 ± 7.82 µg/mL (≈ 120 µM)	6.43 ± 1.34 µg/mL (≈ 26.5 µM)	14.7 ± 3.23 µg/mL (≈ 60.8 µM)	97 to 99 °C	20.2 ± 6.65 µg/mL (≈ 83.5 µM)		
Cc1ccccc1-c1nnc(S(C)(=O)=O)o1 [Compound 5h, 2-(Methylsulfonyl)-5-(2-methylphenyl)-1,3,4-oxadiazole]		> 90%				74.6 ± 8.5%				117 to 119 °C			
CS(=O)(=O)c1nnc(-c2c(F)cccc2Cl)o1 [Compound 5j, 2-(Methylsulfonyl)-5-(2-chloro-6-fluorophenyl)-1,3,4-oxadiazole]		64 ± 2.6%				67.1 ± 4.8%				121 to 123 °C			
Cc1cc(O)no1 [Hymexazol, reference compound]	7.76 ± 2.98 µg/mL (≈ 78.3 µM)		39.3 ± 2.79 µg/mL (≈ 396 µM)	25.2 ± 6.12 µg/mL (≈ 255 µM)	32.2 ± 5.82 µg/mL (≈ 325 µM)		27.9 ± 1.02 µg/mL (≈ 282 µM)	38.6 ± 0.45 µg/mL (≈ 390 µM)	26.5 ± 1.42 µg/mL (≈ 267 µM)		37.6 ± 3.16 µg/mL (≈ 379 µM)	57.3 ± 0.3%	58.4 ± 0.8%
CS(=O)(=O)c1nnc(-c2ccncc2)o1 [Compound 5c, 2-(Methylsulfonyl)-5-(pyridin-4-yl)-1,3,4-oxadiazole]		78.2 ± 4.7%				72.6 ± 6.4%				134 to 136 °C			
